Experimental data as given in the NIST ThermoML archive (doi:10.1016/j.jct.2012.09.028).
± gives the expanded uncertainty stated by the source.

Assay: molar heat capacity at constant pressure
Conditions: 101.33 kPa, Crystal, Vacuum adiabatic calorimetry

O=C[C@H](O)[C@@H](O)[C@H](O)CO [D-xylose]
Conditions | molar heat capacity at constant pressure [J/K/mol]
0.5 K | 0.0003448
1 K | 0.0013
1.5 K | 0.003533
1.9 K | 0.006645
2 K | 0.007825 ± 0.01
2.04 K | 0.008242
2.083 K | 0.008788
2.243 K | 0.01097
2.3 K | 0.01187
2.472 K | 0.01471
2.5 K | 0.01512 ± 0.01
2.538 K | 0.01596
2.632 K | 0.01783
2.787 K | 0.02124 ± 0.041
2.901 K | 0.02401 ± 0.041
3 K | 0.02656 ± 0.01
3.078 K | 0.02907 ± 0.041
3.204 K | 0.03288 ± 0.041
3.413 K | 0.04037 ± 0.041
3.5 K | 0.04351 ± 0.01
3.544 K | 0.04525 ± 0.041
3.773 K | 0.05561 ± 0.041
3.939 K | 0.06374 ± 0.041
4 K | 0.06758 ± 0.011
4.203 K | 0.07931 ± 0.041
4.383 K | 0.09097 ± 0.041
4.5 K | 0.1006 ± 0.011
4.66 K | 0.1124 ± 0.041
4.87 K | 0.1305 ± 0.041
5 K | 0.1446 ± 0.011
5.179 K | 0.1619 ± 0.041
5.436 K | 0.1916 ± 0.041
5.5 K | 0.2018 ± 0.012
5.775 K | 0.2386 ± 0.041
6 K | 0.2744 ± 0.013
6.082 K | 0.2866 ± 0.041
6.466 K | 0.3591 ± 0.041
6.5 K | 0.3648 ± 0.014
6.745 K | 0.4181 ± 0.041
7 K | 0.4752 ± 0.015
7.159 K | 0.5189 ± 0.042
7.497 K | 0.6119 ± 0.042
7.5 K | 0.6076 ± 0.016
7.959 K | 0.7584 ± 0.042
8 K | 0.7638 ± 0.018
8.353 K | 0.8969 ± 0.043
8.5 K | 0.945 ± 0.019
8.863 K | 1.101 ± 0.043
9 K | 1.152 ± 0.021
9.3 K | 1.292 ± 0.043
9.5 K | 1.385 ± 0.023
9.864 K | 1.569 ± 0.044
10 K | 1.644 ± 0.025
10.35 K | 1.83 ± 0.045
10.97 K | 2.212 ± 0.045
11 K | 2.219 ± 0.029
11.52 K | 2.546 ± 0.047
12 K | 2.871 ± 0.034
12.19 K | 2.736 ± 0.047
12.72 K | 3.408 ± 0.049
13 K | 3.59 ± 0.039
13.56 K | 4.028 ± 0.051
14 K | 4.364 ± 0.043
14.25 K | 4.551 ± 0.052
15 K | 5.182 ± 0.048
15.07 K | 5.238 ± 0.054
15.84 K | 5.872 ± 0.055
16 K | 6.036 ± 0.052
16.59 K | 6.471 ± 0.057
17 K | 6.917 ± 0.056
17.61 K | 7.437 ± 0.059
18 K | 7.819 ± 0.06
18.42 K | 8.194 ± 0.061
18.99 K | 8.794 ± 0.062
19 K | 8.734 ± 0.064
20 K | 9.657 ± 0.067
20.27 K | 9.969 ± 0.064
21.17 K | 10.74 ± 0.055
22.58 K | 12.06 ± 0.058
23.64 K | 13.08 ± 0.059
25 K | 14.25 ± 0.076
25.13 K | 14.39 ± 0.06
26.29 K | 15.41 ± 0.061
27.98 K | 16.85 ± 0.06
29.32 K | 17.97 ± 0.059
30 K | 18.55 ± 0.079
31.15 K | 19.42 ± 0.063
32.68 K | 20.56 ± 0.065
34.69 K | 22.14 ± 0.067
35 K | 22.47 ± 0.086
36.33 K | 23.55 ± 0.069
38.59 K | 25.09 ± 0.071
40 K | 26.03 ± 0.093
40.53 K | 26.51 ± 0.073
42.93 K | 27.98 ± 0.075
45 K | 29.36 ± 0.1
45.13 K | 29.46 ± 0.078
47.76 K | 31.18 ± 0.08
50 K | 32.58 ± 0.11
50.2 K | 32.51 ± 0.082
53.12 K | 34.56 ± 0.086
55 K | 35.68 ± 0.11
55.82 K | 36.43 ± 0.088
59.09 K | 38.3 ± 0.091
60 K | 38.82 ± 0.12
62.21 K | 40.2 ± 0.094
65 K | 41.94 ± 0.12
65.77 K | 42.39 ± 0.097
69.15 K | 44.37 ± 0.1
70 K | 45.05 ± 0.13
73.12 K | 46.67 ± 0.1
75 K | 48.14 ± 0.14
76.88 K | 49.05 ± 0.11
80 K | 51.21 ± 0.14
81.26 K | 51.82 ± 0.11
85 K | 54.27 ± 0.15
85.51 K | 54.66 ± 0.12
90 K | 57.3 ± 0.26
90.3 K | 57.7 ± 0.2
95 K | 60.32 ± 0.26
95.15 K | 60.59 ± 0.2
100 K | 63.33 ± 0.26
100.35 K | 63.68 ± 0.2
105.25 K | 66.61 ± 0.21
110 K | 69.28 ± 0.27
110.61 K | 69.55 ± 0.21
115.43 K | 72.27 ± 0.21
120 K | 75.18 ± 0.28
120.64 K | 75.36 ± 0.21
125.54 K | 78.61 ± 0.22
130 K | 81.02 ± 0.28
130.77 K | 81.56 ± 0.22
135.74 K | 84.75 ± 0.22
140 K | 86.83 ± 0.29
140.87 K | 87.47 ± 0.22
145.76 K | 90.11 ± 0.23
150 K | 92.61 ± 0.29
151.03 K | 93.15 ± 0.23
155.98 K | 95.92 ± 0.23
160 K | 98.36 ± 0.3
161.11 K | 99.11 ± 0.23
166.15 K | 102.13 ± 0.23
170 K | 104.1 ± 0.3
171.25 K | 104.92 ± 0.24
176.34 K | 107.5 ± 0.24
180 K | 109.83 ± 0.31
181.48 K | 110.56 ± 0.24
186.59 K | 113.51 ± 0.24
190 K | 115.56 ± 0.32
191.69 K | 116.09 ± 0.25
196.81 K | 119.53 ± 0.25
200 K | 121.29 ± 0.32
201.94 K | 122.16 ± 0.25
207.17 K | 125.24 ± 0.25
210 K | 127.02 ± 0.33
212.26 K | 128.07 ± 0.25
217.5 K | 130.91 ± 0.26
220 K | 132.76 ± 0.33
222.61 K | 134.51 ± 0.26
227.74 K | 137.35 ± 0.26
230 K | 138.51 ± 0.34
232.87 K | 140.48 ± 0.26
237.95 K | 142.93 ± 0.27
240 K | 144.27 ± 0.34
243.02 K | 146.31 ± 0.27
248.07 K | 148.9 ± 0.27
250 K | 150.04 ± 0.35
253.18 K | 152.43 ± 0.27
258.24 K | 154.94 ± 0.28
260 K | 155.83 ± 0.36
263.22 K | 158.02 ± 0.28
268.36 K | 160.56 ± 0.28
270 K | 161.64 ± 0.36
273.15 K | 163.47 ± 0.36
273.41 K | 163.59 ± 0.28
278.46 K | 166.47 ± 0.28
280 K | 167.46 ± 0.37
283.51 K | 169.47 ± 0.29
288.47 K | 172.37 ± 0.29
290 K | 173.3 ± 0.37
293.61 K | 175.31 ± 0.29
298.15 K | 178.08 ± 0.38
298.67 K | 177.87 ± 0.29
300 K | 179.16 ± 0.38
303.66 K | 181.61 ± 0.3
